Here are results for one compound from patent US12350475B2 (SUN PHARMACEUTICAL INDUSTRIES LIMITED, priority 2020, dated 2025).

Series [1] is described as follows: pharmacokinetics of octreotide after subcutaneous injection. The source says: (§1) For patients with acromegaly, there may be a different pharmacokinetic profile.
Series [2] in a line: pharmacokinetics of octreotide after subcutaneous dosing in patients with acromegaly.
Description: as §1

Series [3] in a line: distribution of octreotide in blood (erythrocytes, plasma binding).
Description: as §1

Structures can show the parent of a compound that is named as a salt.

With `C[C@@H](O)[C@@H]1NC(=O)[C@H](CCCCN)NC(=O)[C@@H](Cc2c[nH]c3ccccc23)NC(=O)[C@H](Cc2ccccc2)NC(=O)[C@@H](NC(=O)[C@H](N)Cc2ccccc2)CSSC[C@@H](C(=O)N[C@H](CO)[C@@H](C)O)NC1=O` (relative stereo) [octreotide, L-cysteinamide, D-phenylalanyl-L-cysteinyl-L-phenylalanyl-D-tryptophyl-L-lysyl-L-threonyl-N-[2-hydroxy-1-(hydroxymethyl)propyl]-, cyclic (2#7)-disulfide; [R—(R*, R*)] acetate salt], the “absorption from the injection site” value in series [1] (after subcutaneous injection) is “absorbed completely”. For the same compound, in series [1] (human, plasma, subcutaneous), the Vd was ~13.6 L and the clearance lay in the range of 117 to 167 mL/min. The “dose proportionality of peak concentrations and area under the curve values” in series [1] (subcutaneous single doses up to 500 μg and multiple doses up to 500 μg three times a day (1,500 μg/day)) is “dose proportional”. Moreover, in series [1] (subcutaneous, dose of 100 μg), the peak concentration result is “about 5.2 ng/mL” and the “time to peak concentration after dosing” value was found to be 0.4 h. Also, in series [2] (human, in vivo, subcutaneous), the Vd was ~21.6 L and the clearance was ~300 mL/min. In series [2] (patients with acromegaly, 100 μg dose), the “time to mean peak concentration after subcutaneous dosing” value was “about 0.7 hours”. The mean peak concentration result in series [2] (patients with acromegaly, subcutaneous, 100 μg dose) was “about 2.8 ng/mL”. For the same compound, in series [3] (concentration-independent manner), the “bound in the plasma” value was “about 65%”. For the same compound, the “distribution into the erythrocytes” value in series [3] (in blood) was “negligible”.
